Article PMC7062757 (2020)

Assays:
[1] = tested on: M2 x3 array (5 nt) (Mango II x3, M2x3) (RNA, aptamer) GGCACGUACGAAGGAGAGGAGAGGAAGAGGAGAGUACGUGCUUUUUGGACAUGCCGAAGGAGAGGAGAGGAAGAGGAGAGGCAUGUCCUUUUUGGGUGCAUCGAAGGAGAGGAGAGGAAGAGGAGAGAUGCACCC; assay: fluorescence titration, Hill fit; details: 140 mM KCl, 1 mM MgCl2; 10 mM sodium phosphate, pH 7.2, 22 °C; 40 nM RNA; apparent; per site
[2] = tested on: Mango II (RNA, aptamer) GGCACGUACGAAGGAGAGGAGAGGAAGAGGAGAGUACGUGC; assay: fluorescence titration, Hill fit; details: 140 mM KCl, 1 mM MgCl2; 10 mM sodium phosphate, pH 7.2, 22 °C; 40 nM RNA; apparent; per site

Kd,app [1]: 80 ± 6 nM | Kd,app [2]: 30 ± 4 nM
Structure (SMILES): CN1C=CC(=Cc2sc3ccccc3[n+]2CC(=O)NCCOCCOCCOCCNC(=O)CCCC[C@@H]2SC[C@@H]3NC(=O)N[C@@H]32)c2ccccc21
